System: SEM cells
Assay: cell viability relative to DMSO control; higher = less cytotoxic
Details: 48 h
Outline: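 Library compounds in DMSO were pin-dosed in an 11-point threefold series (47 μM to 0.79 nM) onto leukemia cells in 1536-well plates (5 μl). Plates held 500 cells/well of NOMO1 or SEM or 1000 cells/well of P12-Ichikawa, each adapted for at least four passages in each medium. Luminescence was read with CellTiter-Glo One after 48 h at 37°C. Viability means the per-plate percentage relative to DMSO wells, using cell-free wells as background.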

[1] = HPLM + 10% dialyzed FBS, 0.000781 µM
[2] = HPLM + 10% dialyzed FBS, 0.00234 µM
[3] = HPLM + 10% dialyzed FBS, 0.00702 µM
[4] = HPLM + 10% dialyzed FBS, 0.0211 µM
[5] = HPLM + 10% dialyzed FBS, 0.0632 µM
[6] = HPLM + 10% dialyzed FBS, 0.19 µM
[7] = HPLM + 10% dialyzed FBS, 0.569 µM
[8] = HPLM + 10% dialyzed FBS, 1.71 µM
[9] = HPLM + 10% dialyzed FBS, 5.12 µM
[10] = HPLM + 10% dialyzed FBS, 15.4 µM
[11] = HPLM + 10% dialyzed FBS, 46.1 µM
[12] = RPMI 5 mM glucose + 10% FBS, 0.000781 µM
[13] = RPMI 5 mM glucose + 10% FBS, 0.00234 µM
[14] = RPMI 5 mM glucose + 10% FBS, 0.00702 µM
[15] = RPMI 5 mM glucose + 10% FBS, 0.0211 µM
[16] = RPMI 5 mM glucose + 10% FBS, 0.0632 µM
[17] = RPMI 5 mM glucose + 10% FBS, 0.19 µM
[18] = RPMI 5 mM glucose + 10% FBS, 0.569 µM
[19] = RPMI 5 mM glucose + 10% FBS, 1.71 µM
[20] = RPMI 5 mM glucose + 10% FBS, 5.12 µM
[21] = RPMI 5 mM glucose + 10% FBS, 15.4 µM
[22] = RPMI 5 mM glucose + 10% FBS, 46.1 µM
[23] = RPMI 5 mM glucose + 10% dialyzed FBS, 0.000781 µM
[24] = RPMI 5 mM glucose + 10% dialyzed FBS, 0.00234 µM
[25] = RPMI 5 mM glucose + 10% dialyzed FBS, 0.00702 µM
[26] = RPMI 5 mM glucose + 10% dialyzed FBS, 0.0211 µM
[27] = RPMI 5 mM glucose + 10% dialyzed FBS, 0.0632 µM
[28] = RPMI 5 mM glucose + 10% dialyzed FBS, 0.19 µM
[29] = RPMI 5 mM glucose + 10% dialyzed FBS, 0.569 µM
[30] = RPMI 5 mM glucose + 10% dialyzed FBS, 1.71 µM
[31] = RPMI 5 mM glucose + 10% dialyzed FBS, 5.12 µM
[32] = RPMI 5 mM glucose + 10% dialyzed FBS, 15.4 µM
[33] = RPMI 5 mM glucose + 10% dialyzed FBS, 46.1 µM

Row | SMILES | cell viability [1] | cell viability [2] | cell viability [3] | cell viability [4] | cell viability [5] | cell viability [6] | cell viability [7] | cell viability [8] | cell viability [9] | cell viability [10] | cell viability [11] | cell viability [12] | cell viability [13] | cell viability [14] | cell viability [15] | cell viability [16] | cell viability [17] | cell viability [18] | cell viability [19] | cell viability [20] | cell viability [21] | cell viability [22] | cell viability [23] | cell viability [24] | cell viability [25] | cell viability [26] | cell viability [27] | cell viability [28] | cell viability [29] | cell viability [30] | cell viability [31] | cell viability [32] | cell viability [33]
1 | COc1cc(N[S+](=O)([O-])c2ccc(N)cc2)nc(OC)n1 | 71.9% | 78.4% | 85.6% | 83% | 86.4% | 85.5% | 81.7% | 82.6% | 76.5% | 74.6% | 66.4% | 76.1% | 102% | 90.6% | 83.4% | 102% | 108% | 108% | 96.9% | 84.5% | 111% | 106% | 92.8% | 91.3% | 99.7% | 98.8% | 118% | 101% | 92.7% | 95.3% | 98.9% | 101% | 101%
2 | CN1C(=O)/C=C(/NCCN(CCO)CCCC2=CC=C(C=C2)[N+]([O-])=O)N(C)C1=O | 104% | 113% | 121% | 114% | 108% | 136% | 121% | 119% | 120% | 108% | 66.6% | 112% | 111% | 131% | 118% | 109% | 138% | 133% | 123% | 95.2% | 105% | 55% | 103% | 123% | 135% | 111% | 144% | 138% | 136% | 137% | 121% | 107% | 50.8%
3 | CC(C)c1ccccc1Cc1cc(C(=O)Nc2ccc([S+](=O)([O-])c3ccccc3C(C)(C)C)cc2)c(O)c(O)c1O | 104% | 127% | 116% | 106% | 113% | 101% | 109% | 115% | 68.6% | 94.2% | 94.6% | – | – | – | – | – | – | – | – | – | – | – | 129% | 118% | 120% | 105% | 120% | 112% | 138% | 123% | 32.7% | 69.8% | 92.1%
4 | O=c1[nH]cnc2c1ncn2[C@H]1CC[C@@H](CO)O1 | 85.7% | 97% | 104% | 102% | 88.3% | 101% | 102% | 110% | 99.8% | 90.5% | 69.4% | 85.1% | 86.6% | 98% | 95.8% | 90.8% | 86.4% | 99.9% | 94% | 83.4% | 60.8% | 47.4% | 77.6% | 86.1% | 84.3% | 85.2% | 77.7% | 97.6% | 105% | 92.7% | 99.5% | 67.8% | 70.3%
5 | C#C[C@]1(O)CC[C@H]2[C@@H]3CCc4cc(OC)ccc4[C@H]3CC[C@@]21C | 115% | 108% | 114% | 119% | 122% | 114% | 110% | 107% | 40.3% | 111% | 107% | 119% | 114% | 120% | 127% | 126% | 125% | 120% | 130% | 109% | 145% | 109% | 110% | 111% | 113% | 125% | 120% | 110% | 107% | 134% | 106% | 122% | 97.7%
6 | O=C1NC(=O)/C(=C/c2cccc(C(F)(F)F)c2)S1 | 100% | 93.3% | 96.5% | 108% | 101% | 102% | 100% | 100% | 107% | 89.1% | 66.7% | 99.5% | 100% | 110% | 108% | 112% | 108% | 115% | 104% | 108% | 98.9% | 59.7% | 93.7% | 106% | 106% | 115% | 99.6% | 94.4% | 102% | 108% | 109% | 102% | 62.5%

— the supplement of paper PMC11451515
